Experiment [1] deals with phospho-ERK in A549 (G12S) cells. Nature of the experiment: Inhibition of KRas-mediated phosphorylation of ERK (in-cell western). It counts as cell-based. Conditions: Homo sapiens, 3 hours compound, phospho-ERK normalized to GAPDH. The gist of the method: (§1)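 Fixed-cell immunodetection of ERK phosphorylation following 3 h compound treatment (0.5% DMSO). IC50 derived by 4-parameter fit of GAPDH-normalized signal versus DMSO control.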

Experiment [2] deals with phospho-ERK in AsPC-1 (G12D) cells. Described as above. Type of experiment: cell-based. The settings on record: Homo sapiens, ASPC1, 3 h, 3 hours compound, phospho-ERK normalized to GAPDH. The method in brief:
as §1

In experiment [3] the test system is phospho-ERK in HCT116 (G13D) cells. The description is as above. Type of experiment: cell-based. Conditions: Homo sapiens, HCT-116, 3 hours compound, phospho-ERK normalized to GAPDH. The gist of the method:
as §1

For experiment [4], the system named is phospho-ERK in MKN1 (WTdep) cells. The experiment is described as above. Type of experiment: cell-based. The settings on record: Homo sapiens, MKN-1, 3 hours compound, phospho-ERK normalized to GAPDH. The gist of the method: as §1
The test system of experiment [5] is phospho-ERK in NCI-H358 (G12C) cells. Described as above. The settings on record: Homo sapiens, 3 hours compound, phospho-ERK normalized to GAPDH. Type of experiment: cell-based. The gist of the method:
as §1

The subject of experiment [6] is phospho-ERK in NCI-H460 (Q61H) cells. The description is as above. Type of experiment: cell-based. Conditions: Homo sapiens, NCI-H460, 3 h, 3 hours compound, phospho-ERK normalized to GAPDH. The method in brief: as §1
In experiment [7] the test system is phospho-ERK in NCI-H727 (G12V) cells. The description is as above. Type of experiment: cell-based. The settings on record: Homo sapiens, NCI-H727, 3 h, 3 hours compound, phospho-ERK normalized to GAPDH. The method in brief:
as §1

For experiment [8], the system named is phospho-ERK in PSN-1 (G12R) cells. Described as above. Type of experiment: cell-based. The settings on record: Homo sapiens, PSN1, 3 hours compound, phospho-ERK normalized to GAPDH. The method in brief: as §1
A further experiment concerns the target KRas G12D (Homo sapiens, UniProt P01116, G12D). Briefly: biochemical.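 Note: TR-FRET displacement binding assay on KRas, read after a one-hour incubation at room temperature, IC50 fitted from percent-of-control values.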
The target in the next experiment is KRas G12V (Homo sapiens, UniProt P01116, G12V). Briefly: biochemical.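 Note: KRas binding measured by TR-FRET displacement at room temperature, IC50 fitted from percent of control values.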
Sequence of KRas G12V (P01116 1-169 isoform P01116-2 G12V): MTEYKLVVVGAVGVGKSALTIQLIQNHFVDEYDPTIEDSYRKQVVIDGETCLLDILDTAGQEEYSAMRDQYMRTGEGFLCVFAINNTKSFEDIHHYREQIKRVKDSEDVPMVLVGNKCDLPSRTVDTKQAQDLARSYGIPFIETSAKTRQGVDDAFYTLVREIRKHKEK
The next experiment has as its target KRas G12R (Homo sapiens, UniProt P01116, G12R). Briefly: biochemical.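 Note: TR-FRET displacement assay of compound binding to KRas, read after one hour at room temperature, potency from a four-parameter fit of percent-of-control values.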
In a further experiment the test system is pERK in ASPC1 cells. Briefly: Inhibition of KRas phosphorylation of ERK (Cisbio HTRF pERK assay). Conditions: Homo sapiens, ASPC1, read-out: Inhibition (HTRF IC50) of KRas-mediated Phosphorylation of ERK, AsPC-1.
The next experiment has as its system pERK in H727 cells. Described as above. Conditions: Homo sapiens, NCI-H727, read-out: Inhibition (HTRF IC50) of KRas-mediated Phosphorylation of ERK, H727.
In a further experiment the test system is pERK in H460 cells. The description is as above. Conditions: Homo sapiens, NCI-H460, read-out: Inhibition (HTRF IC50) of KRas-mediated Phosphorylation of ERK, H460.
The next experiment concerns pERK in HCT116 cells. Described as above. Conditions: Homo sapiens, HCT-116, read-out: Inhibition (HTRF IC50) of KRas-mediated Phosphorylation of ERK, HCT116.
A further experiment has as its target T1, KRas G13D (Homo sapiens, UniProt P01116, G13D).
T1 construct: Biotinylated KRas (corresponding to amino acids 1-169, produced at Accelegan Inc.); biotin (biotinylated); purchased Accelegan Inc
Nature of the experiment: KRas binding assay (TR-FRET displacement).

The target in a further experiment is T2, KRas Q61H (Homo sapiens, UniProt P01116, Q61H).
T2 construct: Biotinylated KRas (corresponding to amino acids 1-169, produced at Accelegan Inc.); biotin (biotinylated); purchased Accelegan Inc
T2 sequence (P01116 1-169 isoform P01116-2 Q61H): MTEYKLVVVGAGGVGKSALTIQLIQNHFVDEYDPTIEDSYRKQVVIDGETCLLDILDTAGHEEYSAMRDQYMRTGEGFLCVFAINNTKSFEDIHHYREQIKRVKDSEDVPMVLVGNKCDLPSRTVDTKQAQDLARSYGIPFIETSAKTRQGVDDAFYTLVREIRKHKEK
Nature of the experiment: KRas binding assay (TR-FRET displacement).

For another experiment, the target named is KRas G12A (Homo sapiens, UniProt P01116, G12A). Nature of the experiment: biochemical.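 Note: binding to KRas measured by TR-FRET displacement after one hour at room temperature, IC50 from a four-parameter fit of percent-of-control values.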
Sequence of KRas G12A (P01116 1-169 isoform P01116-2 G12A): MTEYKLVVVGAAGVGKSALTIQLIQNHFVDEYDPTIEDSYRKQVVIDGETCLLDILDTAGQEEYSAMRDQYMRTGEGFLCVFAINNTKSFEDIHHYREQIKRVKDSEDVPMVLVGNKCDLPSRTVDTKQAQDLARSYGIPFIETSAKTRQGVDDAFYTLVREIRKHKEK
The target in the next experiment is KRas G12S (Homo sapiens, UniProt P01116, G12S). Briefly: biochemical.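 Note: TR-FRET displacement binding to KRas, read after one hour incubation at room temperature, IC50 from four-parameter fit of percent of control.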
Sequence of KRas G12S (P01116 1-169 isoform P01116-2 G12S): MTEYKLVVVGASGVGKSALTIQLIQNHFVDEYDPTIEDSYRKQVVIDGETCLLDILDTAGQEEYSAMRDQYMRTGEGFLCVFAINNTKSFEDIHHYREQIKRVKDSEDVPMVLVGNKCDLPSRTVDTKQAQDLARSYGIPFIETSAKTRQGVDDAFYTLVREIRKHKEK
In the next experiment the target is KRas G12C (Homo sapiens, UniProt P01116, G12C). Briefly: biochemical.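 Note: binding to KRas assessed by TR-FRET displacement after one hour incubation at room temperature, potency fitted from percent-of-control values.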
Sequence of KRas G12C (P01116 1-169 isoform P01116-2 G12C): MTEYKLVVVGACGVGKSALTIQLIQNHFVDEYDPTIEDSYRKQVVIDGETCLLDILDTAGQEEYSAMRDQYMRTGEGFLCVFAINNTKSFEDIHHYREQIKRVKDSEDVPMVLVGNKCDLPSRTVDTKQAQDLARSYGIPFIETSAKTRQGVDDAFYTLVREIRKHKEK
In another experiment the target is KRas WT (Homo sapiens, UniProt P01116). Briefly: biochemical.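 Note: binding to KRas read as TR-FRET displacement after a one-hour room-temperature incubation, IC50 derived from percent-of-control values.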
Sequence of KRas WT (P01116 1-169 isoform P01116-2): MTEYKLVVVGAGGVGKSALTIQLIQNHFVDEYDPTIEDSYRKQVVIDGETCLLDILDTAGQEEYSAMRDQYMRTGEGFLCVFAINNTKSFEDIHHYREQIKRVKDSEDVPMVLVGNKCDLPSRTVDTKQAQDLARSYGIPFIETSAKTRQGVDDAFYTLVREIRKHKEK

SMILES strings stand for the structures.

Sequence of KRas G12D (P01116 1-169 isoform P01116-2 G12D): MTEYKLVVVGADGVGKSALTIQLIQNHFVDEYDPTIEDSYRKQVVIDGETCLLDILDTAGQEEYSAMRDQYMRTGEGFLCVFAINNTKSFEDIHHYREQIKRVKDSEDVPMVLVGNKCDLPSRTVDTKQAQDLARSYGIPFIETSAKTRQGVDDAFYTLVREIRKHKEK
Sequence of KRas G12R (P01116 1-169 isoform P01116-2 G12R): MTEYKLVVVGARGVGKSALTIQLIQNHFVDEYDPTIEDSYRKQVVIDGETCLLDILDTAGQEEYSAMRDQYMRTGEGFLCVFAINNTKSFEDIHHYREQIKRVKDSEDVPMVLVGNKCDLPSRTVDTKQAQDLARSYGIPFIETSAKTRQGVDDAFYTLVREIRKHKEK
T1 sequence (P01116 1-169 isoform P01116-2 G13D): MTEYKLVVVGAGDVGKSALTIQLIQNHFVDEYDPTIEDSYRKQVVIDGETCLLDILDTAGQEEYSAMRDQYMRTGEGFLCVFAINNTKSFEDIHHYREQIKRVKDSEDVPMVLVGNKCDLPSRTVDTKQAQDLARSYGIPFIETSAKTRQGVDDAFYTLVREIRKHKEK

For the compound `CCc1c(F)ccc2cc(O)cc(-c3ncc4c(N5CCOCC(CO)C5)nc(OC[C@@]56CCCN5C[C@H](F)C6)nc4c3F)c12` (stereo partly drawn) [Example 74, 5-ethyl-6-fluoro-4-(8-fluoro-2-(((2R,7aS)-2-fluorotetrahydro-1H-pyrrolizin-7a(5H)-yl)methoxy)-4-(6-(hydroxymethyl)-1,4-oxazepan-4-yl)pyrido[4,3-d]pyrimidin-7-yl)naphthalen-2-ol], the IC50 was 63 nM in [1]; 72 nM in experiment [2]; 662 nM in experiment [3]; 8 nM in experiment [4]; 10 nM in experiment [5]; 55 nM in experiment [6]. Besides, the IC50 was 355 nM in [7]; ≥ 10000 nM in experiment [8]; ≤ 0.002 µM against KRas G12D; ≤ 0.002 µM against KRas G12V; 0.003 µM against KRas G12R; 0.065 µM in the experiment on pERK in ASPC1 cells. In addition, the values for the IC50 in the experiment on pERK in H727 cells, in the experiment on pERK in H460 cells and in the experiment with pERK in HCT116 cells were 0.084 µM, 0.151 µM and 0.336 µM, respectively.

With `C#Cc1c(F)ccc2cc(O)cc(-c3ncc4c(N5CCCC6(CC(=O)N6)C5)nc(OC[C@@]56CCCN5C[C@H](F)C6)nc4c3F)c12` (some centres unmarked) [Example 148], the IC50 in experiment [1] is 550 nM; in [2], 105 nM; in experiment [3] it was ≥ 10000 nM; in [4], 76 nM; in experiment [5], 15 nM; in experiment [6], 68 nM. Further, the IC50 in experiment [7] was 260 nM; in [8], 3780 nM; at KRas G12D, 0.003 µM; on KRas G12V it was ≤ 0.002 µM; against KRas G12R it was ≤ 0.002 µM; with pERK in ASPC1 cells, 0.059 µM. For the same compound, the IC50 in the experiment with pERK in H727 cells was found to be 0.11 µM; in the experiment on pERK in H460 cells, 0.132 µM; in the experiment on pERK in HCT116 cells, 2.21 µM.

With `CCc1c(F)ccc2cccc(-c3ncc4c(N5CCCC6(CNC(=O)C6)C5)nc(OC[C@@]56CCCN5C[C@H](F)C6)nc4c3F)c12` (stereo partly drawn) [Example 37, 7-(7-(8-ethyl-7-fluoronaphthalen-1-yl)-8-fluoro-2-(((2R,7aS)-2-fluorotetrahydro-1H-pyrrolizin-7a(5H)-yl)methoxy)pyrido[4,3-d]pyrimidin-4-yl)-2,7-diazaspiro[4.5]decan-3-one], the half-inhibitory concentration (IC50) is 88 nM at KRas G13D; 88 nM on KRas Q61H; 8950 nM in experiment [1]; 2210 nM in [2]; 4360 nM in experiment [3]; 1670 nM in experiment [4]. Moreover, the IC50 in experiment [5] is 1720 nM; in [6] it was ≥ 10000 nM; in experiment [7] it was ≥ 10000 nM; in experiment [8], ≥ 10000 nM; at KRas G12D it was 0.041 µM; on KRas G12V, 0.057 µM. Moreover, the IC50 against KRas G12R came to 0.093 µM; against KRas G12A, 0.052 µM; at KRas G12S, 0.063 µM; against KRas G12C, 0.056 µM; at KRas WT it was 0.068 µM.

Take `CCc1c(F)ccc2cc(O)cc(-c3ncc4c(NCc5ccc6nccn6c5)nc(OC[C@@]56CCCN5C[C@H](F)C6)nc4c3F)c12` [Example 156, 5-ethyl-6-fluoro-4-(8-fluoro-2-(((2R,7aS)-2-fluorohexahydro-1H-pyrrolizin-7a-yl)methoxy)-4-((imidazo[1,2-a]pyridin-6-ylmethyl)amino)pyrido[4,3-d]pyrimidin-7-yl)naphthalen-2-ol]: the IC50 worked out at 33 nM in experiment [1]; 335 nM in [2]; 323 nM in experiment [3]; 14 nM in experiment [4]; 10 nM in [5]; 141 nM in [6]. The IC50 in experiment [7] was 189 nM; in experiment [8] it was ≥ 10000 nM; on KRas G12D it was ≤ 0.002 µM; on KRas G12V it was ≤ 0.002 µM; against KRas G12R it was ≤ 0.002 µM; in the experiment with pERK in ASPC1 cells, 0.125 µM. The IC50 with pERK in H727 cells was 0.072 µM; in the experiment on pERK in H460 cells, 0.143 µM; with pERK in HCT116 cells, 0.349 µM.

Consider `CCc1c(F)ccc2cc(O)cc(-c3ncc4c(N5CCCCC5)nc(OC[C@@]56CCCN5C[C@H](O)C6)nc4c3F)c12` [Example 7], for which the IC50 at KRas G13D came out at 3 nM; on KRas Q61H, 3 nM; in [1], 1090 nM; in experiment [2], 802 nM; in experiment [3] it was 627 nM; in [4], 32 nM. Further, the IC50 in [5] is 199 nM; in experiment [6], 416 nM; in experiment [7], 530 nM; in [8] it was 3590 nM; at KRas G12D it was ≤ 0.002 µM; on KRas G12V it was ≤ 0.002 µM. The IC50 at KRas G12R was ≤ 0.002 µM; against KRas G12A it was ≤ 0.002 µM; against KRas G12S, ≤ 0.002 µM; against KRas G12C, ≤ 0.002 µM; against KRas WT it was 0.003 µM.

For `C#Cc1c(F)ccc2cccc(-c3ncc4c(N5CCC[C@@](C)(O)C5)nc(OC[C@@]56CCCN5C[C@H](F)C6)nc4c3F)c12` [Example 51, (R)-1-(7-(8-ethynyl-7-fluoronaphthalen-1-yl)-8-fluoro-2-(((2R,7aS)-2-fluorohexahydro-1H-pyrrolizin-7a-yl)methoxy)pyrido[4,3-d]pyrimidin-4-yl)-3-methylpiperidin-3-ol], the IC50 at KRas G13D stood at 36 nM; at KRas Q61H it was 50 nM; in experiment [1], 2640 nM; in [2], 586 nM; in experiment [3], 3720 nM; in experiment [4], 873 nM. Also, the IC50 is 715 nM in experiment [5]; ≥ 10000 nM in [6]; 7230 nM in experiment [7]; ≥ 10000 nM in [8]; 0.021 µM on KRas G12D; 0.035 µM on KRas G12V. Further, the IC50 at KRas G12R is 0.069 µM; on KRas G12A it was 0.036 µM; on KRas G12S, 0.038 µM; at KRas G12C, 0.035 µM; against KRas WT it was 0.032 µM.

As to `CCc1c(F)ccc2cc(O)cc(-c3ncc4c(N5CCC[C@@](C)(O)C5)nc(OCC56CCCN5CCC6)nc4c3F)c12` [Example 27], the IC50 on KRas G13D is ≤ 2 nM; on KRas Q61H, ≤ 2 nM; in experiment [1] it was 300 nM; in experiment [2] it was 45 nM; in [3], 88 nM; in [4], 20 nM. For the same compound, the IC50 was 22 nM in experiment [5]; 33 nM in experiment [6]; 232 nM in [7]; 2920 nM in experiment [8]; ≤ 0.002 µM against KRas G12D; ≤ 0.002 µM on KRas G12V. The IC50 on KRas G12R, against KRas G12A, against KRas G12S, against KRas G12C and against KRas WT was ≤ 0.002 µM in each case.

The values are drawn from patent US12398154B2, “Azaquinazoline pan-KRas inhibitors” (Mirati Therapeutics, Inc., priority 2020, dated 2025).
